Laboratory results reported in publication PMC12424289, “Programmable Nanostructure Assembly of a Paclitaxel Derivative Enables Tunable Anticancer Therapy via Hydrogen Bond Engineering” (ACS Nano, 2025).

What was measured:
[1] = test system: Balb/c mice; assay: Maximum tolerated dose / survival in mice; format: in vivo, mouse; conditions: iv, PTX 33.0 mg·kg^–1, after 14 days
[2] = test system: human lung A549 cells; assay: CCK8 antiproliferation assay, A549; format: cell-based; conditions: A549, 48 h treatment
Method: (§1) The mouse breast cancer cell line 4T1 and the human ovarian cancer cell line SKOV3 were cultured in RPMI 1640 medium supplemented with 10% fetal bovine serum, 100 units·mL^–1 penicillin, and 100 μg·mL^–1 streptomycin. The human lung cancer cell line A549 and the luciferase-expressing human colorectal carcinoma cell line HCT116-Luc were cultured in high-glucose DMEM medium supplemented with 10% fetal bovine serum, 100 units·mL^–1 penicillin, and 100 μg·mL^–1 streptomycin. All cell lines were maintained at 37 °C in a Steri-Cycle 371 incubator (Thermo Scientific, USA) with a humidified atmosphere of 5% CO2. Only cells between passages 5 and 15 were used for cell-based experiments.
(§2) The antiproliferative activity of PTP was evaluated using the Cell Counting Kit-8 (CCK8) assay. PTX solution served as a positive control. Cell suspensions were prepared at a density of 3 × 10^4 cells·mL^–1 and seeded in 96-well plates at a volume of 100 μL per well. The plates were incubated for 24 h to allow cell attachment and growth. Subsequently, the culture media were replaced with fresh media containing varying concentrations of PTX or PTP solutions (100 μL per well), and the cells were incubated for an additional 48 h (n = 3). Control wells received fresh culture media alone (n = 3). […] Finally, the absorbance was measured at 450 nm using a microplate reader (Synergy H1, BioTek, USA). […]

[3] = test system: mouse breast 4T1 cells; assay: CCK8 antiproliferation assay, 4T1; format: cell-based; conditions: 4T1, 48 h treatment
Method: as §1, §2

[4] = test system: tubulin; assay: Isothermal titration calorimetry with tubulin; format: binding; conditions: tubulin 180 μM titrated into 25 μM compound
Method: ITC experiments were performed using a Nano-ITC (TA Instruments, USA) with all samples degassed for 8 min prior to measurement. Experiments were conducted under stirring at 350 rpm. To account for background signals, control experiments were conducted and subtracted from the test data. The resulting heat values were analyzed using an independent model to extract thermodynamic parameters. For tubulin binding studies, solutions were prepared in PEM buffer containing 5% (v/v) DMSO. In each experiment, 400 μL of the […] was loaded into the sample cell, and 400 μL of PEM buffer with 5% (v/v) DMSO was placed in the reference cell. Tubulin solution (180 μM) was titrated into the sample cell in 25 injections of 2 μL each at 4 °C. A control titration of tubulin into PEM buffer (5% DMSO) was performed to account for dilution effects. To assess interactions between PTP and excipients, PTP dispersions (25 μM) were loaded into the sample cell, and water was used in the reference cell. PEG400 solution (6.0 mg·mL^–1) was titrated into a 2.0 mg·mL^–1 PTP dispersion, and HA (2.7 mg·mL^–1) into a 1.0 mg·mL^–1 PTP dispersion. Both titrations were performed at 25 °C with 25 injections of 2 μL each. Control experiments were performed by titrating PEG400 or HA into water to correct for nonspecific heat effects.

[5] = Pharmacokinetics after intraperitoneal injection; format: in vivo; conditions: male, Sprague-Dawley, rat, plasma; rats, single ip; PTP@HA 100.0 mg·kg^–1 PTP, PTX solution 12.0 mg·kg^–1
Method: For plasma samples, 50 μL of plasma was mixed with 100 μL of a docetaxel acetonitrile solution (15 ng·mL^–1) for protein precipitation. The mixture was vortexed and then centrifuged at 4 °C, 17 000 rpm for 30 min. For tissue samples, mice were euthanized at specified time points, and tissues were harvested and rinsed with saline. Two kidneys, the entire heart, spleen, lung, tumor, and 150–200 mg of liver were placed in grinding tubes. Saline was added at a ratio of 1:5 (m/v), and the tissues were ground using a freezing grinder (Jingxin, China) at 4 °C. Next, 100 μL of docetaxel acetonitrile solution (15 ng·mL^–1) was added to 50 μL of the tissue homogenate. After vortex mixing, the mixture was centrifuged at 4 °C, 17 000 rpm for 30 min. The supernatants for both plasma and tissue samples were analyzed by LC-MS as described below.
The concentrations of PTP and PTX in plasma and tissue samples were determined using liquid chromatography–mass spectrometry (LC-MS) with a G6470A system (Agilent, USA) equipped with a C18 column (2.1 × 100 mm, 2.7 μm, Agilent, USA). […]
The PTP@HA hydrogel, containing PTP at a concentration of 5.0 mg·mL^–1, was prepared by adding HA saline solution (20.0 mg·mL^–1) to solid PTP, followed by vortexed for 1 min. […] Plasma concentrations of both PTP and PTX were subsequently quantified using LC-MS (G6470A, Agilent, USA).

[6] = test system: human ovarian SKOV3 cells; assay: CCK8 antiproliferation assay, SKOV3; format: cell-based; conditions: SK-OV-3, SKOV3, 48 h treatment
Method: as §1, §2

[7] = test system: human colon HCT116-Luc cells; assay: CCK8 antiproliferation assay, HCT116-Luc; format: cell-based; conditions: 48 h treatment
Method: as §1, §2

## CC(=O)O[C@H]1C(=O)[C@@]2(C)[C@H]([C@H](OC(=O)c3ccccc3)[C@]3(O)C[C@H](OC(=O)[C@H](O)[C@@H](NC(=O)c4ccccc4)c4ccccc4)C(C)=C1C3(C)C)[C@]1(OC(C)=O)CO[C@@H]1C[C@@H]2O [PTX, Paclitaxel]
[1]
  survival: 83.3%
[2]
  IC50: 11.3 nM
[3]
  IC50: 25.9 nM
[4]; ITC
  molar ratio of tubulin to compound: 1.5
[4]; 5% DMSO, 4 °C
  Gibbs free energy change (ΔG): −27.0 kJ·mol^–1
[5]
  MRT: 4.4 h
  half-life: 3.2 h
[6]
  IC50: 37.4 nM
[7]
  IC50: 13.1 nM
